From publication PMC6583964, “Identification and functional characterization of D-fructose receptor in an egg parasitoid, Trichogramma chilonis” (PLoS ONE, 2019) come the findings set out here.

Experiment [1] deals with T1, TchiGR43a (Trichogramma chilonis, UniProt A0A481RL18).
T1 construct: full-length open reading frame (549 amino acid residues), expressed in Xenopus laevis oocytes
T1 sequence (A0A481RL18 1-549): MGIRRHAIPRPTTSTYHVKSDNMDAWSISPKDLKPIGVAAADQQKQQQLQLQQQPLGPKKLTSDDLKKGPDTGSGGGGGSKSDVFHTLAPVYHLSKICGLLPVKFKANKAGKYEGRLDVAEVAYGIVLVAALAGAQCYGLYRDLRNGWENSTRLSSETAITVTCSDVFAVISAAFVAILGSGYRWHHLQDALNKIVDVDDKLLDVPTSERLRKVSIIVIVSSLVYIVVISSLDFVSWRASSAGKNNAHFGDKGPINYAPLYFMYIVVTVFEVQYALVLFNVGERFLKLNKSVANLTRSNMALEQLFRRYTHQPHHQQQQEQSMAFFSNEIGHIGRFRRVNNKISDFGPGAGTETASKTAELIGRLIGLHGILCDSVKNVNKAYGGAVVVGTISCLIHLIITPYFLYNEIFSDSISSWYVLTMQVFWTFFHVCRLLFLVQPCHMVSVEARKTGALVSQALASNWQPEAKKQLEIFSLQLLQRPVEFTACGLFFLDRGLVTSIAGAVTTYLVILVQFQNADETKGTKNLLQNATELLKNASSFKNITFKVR
In words: two-electrode voltage-clamp of Xenopus oocytes expressing TchiGR43a, dose-response. Format: cell-based. In general terms: In two-electrode clamp one electrode senses voltage and the other passes current.

In experiment [2] the target is T1, TchiGR43a. As to the kind of experiment: two-electrode voltage-clamp of Xenopus oocytes expressing TchiGR43a, single concentration […] (weaker response than D-fructose). Format: cell-based.

For `O=C(CO)[C@@H](O)[C@H](O)[C@H](O)CO` [D-fructose], the concentration giving a half-maximal response (EC50) at TchiGR43a [1] came to 23 mM.

As for `O[C@H]1[C@H](O)[C@@H](O)[C@H](O)[C@@H](O)[C@H]1O` [myo-inositol], at TchiGR43a [2], the “two-electrode voltage-clamp of Xenopus oocytes expressing TchiGR43a, single conc” value is “the oocytes expressing TchiGR43a showed responses to D-fructose and myo-inositol”.

For orientation: EC50 means the concentration needed to bring the measured effect to its halfway point.
